Patent US20240374552A1, “Compositions and Methods for Preventing or Reducing the Risk of Metabolic Syndrome” (priority 2021, published 2024)

System: High-Fat Diet (HFD) induced obesity model
Test: Effectiveness on metabolic syndrome risk factors, high-fat diet-induced obesity model
Conditions: for Body mass index / Cholesterol (%) / Fat free mass / Fat mass / Food consumption (%) / Glucose (%) / Triglycerides (%) / Weight loss (%): reduction, negative = increase
[1] = ED4: HFD, 0.001 mg/Kg daily 2 weeks
[2] = ED5: Normal diet, 0.001 mg/Kg daily 2 weeks
[3] = ED6: HFD, 0.0175 mg/Kg daily 2 weeks
[4] = ED7: Normal diet, 0.0175 mg/Kg daily 2 weeks
[5] = ED8: HFD, 0.175 mg/Kg daily 2 weeks
[6] = ED9: Normal diet, 0.175 mg/Kg daily 2 weeks
[7] = ED10: HFD, 0.18 mg/Kg daily 2 weeks
[8] = ED11: Normal diet, 0.18 mg/Kg daily 2 weeks
[9] = ED12: HFD, 0.1999 mg/Kg daily 2 weeks
[10] = ED13: Normal diet, 0.1999 mg/Kg daily 2 weeks
[11] = EH4: HFD, 0.20 mg/Kg daily 2 weeks, purity min 95%
[12] = EH5: Normal diet, 0.20 mg/Kg daily 2 weeks, purity min 95%
[13] = EH6: HFD, 0.76 mg/Kg daily 2 weeks, purity min 95%
[14] = EH7: Normal diet, 0.76 mg/Kg daily 2 weeks, purity min 95%
[15] = EH8: HFD, 1.75 mg/Kg daily 2 weeks, purity min 95%
[16] = EH9: Normal diet, 1.75 mg/Kg daily 2 weeks, purity min 95%
[17] = EH10: HFD, 5.50 mg/Kg daily 2 weeks, purity min 95%
[18] = EH11: Normal diet, 5.50 mg/Kg daily 2 weeks, purity min 95%
[19] = EH12: HFD, 25.00 mg/Kg daily 2 weeks, purity min 95%
[20] = EH13: Normal diet, 25.00 mg/Kg daily 2 weeks, purity min 95%
[21] = EH14: HFD, 55.50 mg/Kg daily 2 weeks, purity min 95%
[22] = EH15: Normal diet, 55.50 mg/Kg daily 2 weeks, purity min 95%
[23] = doses 0.001 mg/Kg to about 0.1999 mg/Kg
[24] = doses 0.20 mg/Kg to about 1.75 mg/Kg

Description: Animal studies in high-fat diet-induced obesity model in a total 75 male C57BL/6/CIEABR mice 6 to 7 weeks of age.
The test system is based on the High-Fat Diet (HFD) induced obesity model.
During the quarantine period (10 days), all animals were given rodent food “PicoLab Mouse Diet 5058” food, later, they were given high fat food “Tso's High Fat Diet With Butter Fat” or “PicoLab Mouse Diet 5058” food, according to the assignment of the type of diet and treatment that each animal should consume (See table 3 and table 4).
At the end of the induction period, the administration of the different treatments began. The test product, vehicle, and controls were administered daily for two weeks. Administration was orally using curved stainless steel gastric tubes (18 G×1.5) previously sanitized; administration was performed at 11:00±1 h.
For each treatment, different parameters were quantified to determine their decrease regarding the treatment applied to each group: weight loss (%), feed consumption (%), fat free mass (g), fat mass (g), body mass index, glucose (%), cholesterol (%) and triglycerides (%).

SMILES: CC(C)(C)c1cc(C=C(C#N)C#N)cc(C(C)(C)C)c1O [tyrphostin AG17, Tyrphostin AG17]
- Body mass index [1]: 1.04
- Cholesterol (%) [1]: −0.03%
- Fat free mass [1]: -2.69 g
- Fat mass [1]: -0.54 g
- Food consumption (%) [1]: −4.21%
- Glucose (%) [1]: 0.75%
- Triglycerides (%) [1]: 4.35%
- Weight loss (%) [1]: 3.17%
- Body mass index [2]: 1.69
- Cholesterol (%) [2]: 0.10%
- Fat free mass [2]: -4.02 g
- Fat mass [2]: 1.28 g
- Food consumption (%) [2]: 1.05%
- Glucose (%) [2]: 1.33%
- Triglycerides (%) [2]: 7.83%
- Weight loss (%) [2]: 4.01%
- Body mass index [3]: 2.03
- Cholesterol (%) [3]: 0.04%
- Fat free mass [3]: 1.22 g
- Fat mass [3]: -0.31 g
- Food consumption (%) [3]: 13.04%
- Glucose (%) [3]: 0.92%
- Triglycerides (%) [3]: 17.39%
- Weight loss (%) [3]: 6.19%
- Body mass index [4]: 2.73
- Cholesterol (%) [4]: 0.44%
- Fat free mass [4]: 3.21 g
- Fat mass [4]: 2.59 g
- Food consumption (%) [4]: 17.39%
- Glucose (%) [4]: 1.24%
- Triglycerides (%) [4]: 20.00%
- Weight loss (%) [4]: 8.40%
- Body mass index [5]: 4.41
- Cholesterol (%) [5]: 0.65%
- Fat free mass [5]: 2.34 g
- Fat mass [5]: 1.28 g
- Food consumption (%) [5]: 25.00%
- Glucose (%) [5]: 1.36%
- Triglycerides (%) [5]: 24.35%
- Weight loss (%) [5]: 17.16%
- Body mass index [6]: 4.30
- Cholesterol (%) [6]: 1.30%
- Fat free mass [6]: 3.98 g
- Fat mass [6]: 3.56 g
- Food consumption (%) [6]: 20.83%
- Glucose (%) [6]: 1.93%
- Triglycerides (%) [6]: 25.22%
- Weight loss (%) [6]: 22.13%
- Body mass index [7]: 3.30
- Cholesterol (%) [7]: 1.10%
- Fat free mass [7]: 3.32 g
- Fat mass [7]: -0.10 g
- Food consumption (%) [7]: 21.74%
- Glucose (%) [7]: 1.49%
- Triglycerides (%) [7]: 32.17%
- Weight loss (%) [7]: 16.56%
- Body mass index [8]: 4.22
- Cholesterol (%) [8]: 1.27%
- Fat free mass [8]: 5.11 g
- Fat mass [8]: 4.92 g
- Food consumption (%) [8]: 22.92%
- Glucose (%) [8]: 2.31%
- Triglycerides (%) [8]: 29.57%
- Weight loss (%) [8]: 20.88%
- Body mass index [9]: 3.35
- Cholesterol (%) [9]: 0.94%
- Fat free mass [9]: 3.41 g
- Fat mass [9]: 0.36 g
- Food consumption (%) [9]: 22.27%
- Glucose (%) [9]: 1.40%
- Triglycerides (%) [9]: 30.54%
- Weight loss (%) [9]: 16.24%
- Body mass index [10]: 3.91
- Cholesterol (%) [10]: 2.44%
- Fat free mass [10]: 5.39 g
- Fat mass [10]: 6.02 g
- Food consumption (%) [10]: 23.11%
- Glucose (%) [10]: 2.11%
- Triglycerides (%) [10]: 30.43%
- Weight loss (%) [10]: 18.21%
- Body mass index [11]: 3.34
- Cholesterol (%) [11]: 1.13%
- Fat free mass [11]: 3.44 g
- Fat mass [11]: 0.39 g
- Food consumption (%) [11]: 18.18%
- Glucose (%) [11]: 1.43%
- Triglycerides (%) [11]: 31.02%
- Weight loss (%) [11]: 20.88%
- Body mass index [12]: 4.05
- Cholesterol (%) [12]: 2.48%
- Fat free mass [12]: 4.92 g
- Fat mass [12]: 5.99 g
- Food consumption (%) [12]: 22.07%
- Glucose (%) [12]: 2.15%
- Triglycerides (%) [12]: 30.75%
- Weight loss (%) [12]: 20.97%
- Body mass index [13]: 2.23
- Cholesterol (%) [13]: 1.49%
- Fat free mass [13]: 2.39 g
- Fat mass [13]: 1.21 g
- Food consumption (%) [13]: 23.81%
- Glucose (%) [13]: 2.05%
- Triglycerides (%) [13]: 33.12%
- Weight loss (%) [13]: 14.92%
- Body mass index [14]: 3.43
- Cholesterol (%) [14]: 3.38%
- Fat free mass [14]: 3.94 g
- Fat mass [14]: 7.52 g
- Food consumption (%) [14]: 30.10%
- Glucose (%) [14]: 2.04%
- Triglycerides (%) [14]: 31.74%
- Weight loss (%) [14]: 17.21%
- Body mass index [15]: 2.50
- Cholesterol (%) [15]: 2.02%
- Fat free mass [15]: -0.12 g
- Fat mass [15]: 1.05 g
- Food consumption (%) [15]: 33.11%
- Glucose (%) [15]: 2.19%
- Triglycerides (%) [15]: 33.45%
- Weight loss (%) [15]: 18.14%
- Body mass index [16]: 3.40
- Cholesterol (%) [16]: 3.43%
- Fat free mass [16]: 1.04 g
- Fat mass [16]: 6.98 g
- Food consumption (%) [16]: 35.18%
- Glucose (%) [16]: 2.43%
- Triglycerides (%) [16]: 32.42%
- Weight loss (%) [16]: 13.88%
- Body mass index [17]: 3.30
- Cholesterol (%) [17]: 2.36%
- Fat free mass [17]: -0.04 g
- Fat mass [17]: 1.28 g
- Food consumption (%) [17]: 38.09%
- Glucose (%) [17]: 3.11%
- Triglycerides (%) [17]: 34.17%
- Weight loss (%) [17]: 7.83%
- Body mass index [18]: 4.22
- Cholesterol (%) [18]: 3.44%
- Fat free mass [18]: 0.42 g
- Fat mass [18]: 5.41 g
- Food consumption (%) [18]: 47.82%
- Glucose (%) [18]: 2.03%
- Triglycerides (%) [18]: 32.56%
- Weight loss (%) [18]: 8.87%
- Body mass index [19]: 3.35
- Cholesterol (%) [19]: 2.49%
- Fat free mass [19]: -0.13 g
- Fat mass [19]: 1.20 g
- Food consumption (%) [19]: 37.27%
- Glucose (%) [19]: 4.20%
- Triglycerides (%) [19]: 37.21%
- Weight loss (%) [19]: 9.27%
- Body mass index [20]: 3.91
- Cholesterol (%) [20]: 3.45%
- Fat free mass [20]: -0.10 g
- Fat mass [20]: 5.58 g
- Food consumption (%) [20]: 40.91%
- Glucose (%) [20]: 2.10%
- Triglycerides (%) [20]: 32.45%
- Weight loss (%) [20]: 7.30%
- Body mass index [21]: 2.54
- Cholesterol (%) [21]: 2.33%
- Fat free mass [21]: -0.12 g
- Fat mass [21]: 1.06 g
- Food consumption (%) [21]: 33.12%
- Glucose (%) [21]: 4.38%
- Triglycerides (%) [21]: 37.84%
- Weight loss (%) [21]: 3.49%
- Body mass index [22]: 2.99
- Cholesterol (%) [22]: 3.58%
- Fat free mass [22]: -0.09 g
- Fat mass [22]: 5.01 g
- Food consumption (%) [22]: 41.37%
- Glucose (%) [22]: 1.91%
- Triglycerides (%) [22]: 33.32%
- Weight loss (%) [22]: 4.44%
- Concentration of triglycerides [23]: considerable decrease
- Levels of HDL and glucose [23]: maintaining the levels of HDL and glucose
- Liver damage or toxic effects [23]: low presence of liver damage or toxic effects
- Weight [23]: considerable decrease
- Concentration of triglycerides [24]: decrease
- Glucose levels [24]: maintained
- HDL levels [24]: reduced
- Weight [24]: decrease
- Effect on the liver and toxic effects (doses 0.20 mg/Kg to about 1.75 mg/Kg, high purity tyrphostin): reduced the effect on the hepatic liver as well as the toxic effects
